Values joined by “and” are separate entries in the source; they are usually repeats but may differ in a detail not shown here. Equal entries are not always repeated. Where two headings read alike, the source gives them in different places. Ends that are not written are not given here.
Key:
[1] = cited from earlier work
soluble guanylyl cyclase = target: T1, soluble guanylyl cyclase (Bos taurus, UniProt P16068+P19687); details: cited from earlier work
T1 sequence (P16068 1-619): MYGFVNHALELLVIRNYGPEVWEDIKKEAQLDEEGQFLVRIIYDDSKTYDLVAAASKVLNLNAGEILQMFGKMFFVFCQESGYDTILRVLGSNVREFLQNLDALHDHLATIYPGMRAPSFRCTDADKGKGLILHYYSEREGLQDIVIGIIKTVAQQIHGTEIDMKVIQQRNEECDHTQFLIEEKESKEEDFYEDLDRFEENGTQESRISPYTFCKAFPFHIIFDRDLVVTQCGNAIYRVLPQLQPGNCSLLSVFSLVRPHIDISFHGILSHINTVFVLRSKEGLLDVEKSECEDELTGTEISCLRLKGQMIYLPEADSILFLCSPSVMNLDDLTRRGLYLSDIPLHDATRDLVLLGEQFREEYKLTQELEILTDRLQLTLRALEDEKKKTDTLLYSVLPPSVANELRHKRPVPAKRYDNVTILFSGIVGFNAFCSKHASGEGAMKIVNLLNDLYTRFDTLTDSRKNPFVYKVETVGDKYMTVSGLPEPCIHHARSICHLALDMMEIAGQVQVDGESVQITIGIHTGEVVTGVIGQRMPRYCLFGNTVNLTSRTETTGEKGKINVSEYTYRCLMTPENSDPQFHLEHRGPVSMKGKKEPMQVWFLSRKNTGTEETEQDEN
T1 sequence (P19687 1-691): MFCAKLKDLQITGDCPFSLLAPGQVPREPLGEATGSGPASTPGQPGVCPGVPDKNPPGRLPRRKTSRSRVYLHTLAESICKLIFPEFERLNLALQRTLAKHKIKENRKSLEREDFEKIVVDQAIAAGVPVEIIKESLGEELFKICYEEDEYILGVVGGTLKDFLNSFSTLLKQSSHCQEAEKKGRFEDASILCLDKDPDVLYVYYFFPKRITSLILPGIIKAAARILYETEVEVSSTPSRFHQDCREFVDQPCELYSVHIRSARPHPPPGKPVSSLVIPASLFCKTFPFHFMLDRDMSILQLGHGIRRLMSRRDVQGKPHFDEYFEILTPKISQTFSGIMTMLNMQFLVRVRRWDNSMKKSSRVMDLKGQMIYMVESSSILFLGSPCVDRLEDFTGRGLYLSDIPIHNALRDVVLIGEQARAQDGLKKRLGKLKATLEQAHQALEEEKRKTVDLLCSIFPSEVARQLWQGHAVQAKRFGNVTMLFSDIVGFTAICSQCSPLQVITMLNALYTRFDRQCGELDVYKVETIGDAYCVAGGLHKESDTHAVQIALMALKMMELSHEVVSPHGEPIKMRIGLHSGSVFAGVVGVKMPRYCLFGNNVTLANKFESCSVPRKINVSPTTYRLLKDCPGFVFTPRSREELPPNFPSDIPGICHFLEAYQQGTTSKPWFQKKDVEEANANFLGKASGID

[2] = cited from earlier work; remark: listed apart in the source
intracranial RG2 tumors = test: Survival study, rats with intracranial RG2 tumors; type: in vivo, rat
Method: Wistar rats with implanted intracranial tumors were used to study the effect of MS on increased carboplatin delivery and survival. RG2 cells (1×10^5) were implanted intracranially to form a tumor (2 mm in size) in rats within a week. After a week, rats were given saline, carboplatin (5 mg/kg) or carboplatin after 15 min of MS (30 μg/kg/min for 15 min) infusion through an exteriorized catheter once a day for three consecutive days. The rats were carefully monitored for mortality and clinical signs due to brain tumor growth for 90 days or until death, whichever came first. Brains of dead, moribund or those rats that survived beyond 90 days were removed, frozen and cryosectioned for histological evaluation, in order to compare tumor volumes between treated and untreated groups. Kaplan-Meier analysis was performed to determine the statistical significance of the results.

KATP channels = test: Membrane potential assay of KATP channel activity; type: cell-based, human; details: RBEC, HBMVEC, RG2 and GBM cells
Method: Functional activities of putative KATP channels in HBMVEC and GBM cells were measured by detecting changes in voltage across the cell membrane as described earlier (Ningarsj, N. S., Rao, M., Hashizume, K., Asotra, K., and Black, K. L. Regulation of blood-brain tumor barrier permeability by calcium-activated potassium channels J. Pharmacol. Exp. Ther., 301:838-851, 2002). A membrane potential assay kit (Molecular Devices, Sunnyvale, Calif.) provided a fast, simple and consistent mix-and-read procedure. In brief, HBMVEC and GBM cells obtained from cell passages 2-5 was suspended in 5 ml of growth medium. In two separate experiments, the cell density was adjusted to 1×10^3 cells/well and coated in sterile, clear bottom, blank 96-well plates (Corning, Inc., Acton, Mass.), pre-coated with poly L-Lysine, and allowed to achieve a monolayer within 24 h. The monolayer cells were incubated with the membrane potential assay kit reagents for 30 min and read directly by FLEXstation. The anionic pchemiometric dye that traverses between cells and the extracellular solution in a membrane potential-dependent manner serves as an indicator of vasomodulator-induced voltage changes across the cell membrane. […] Additionally, the effects of the optimum dose (10 μM) of MS and glibenclamide (100 nM) on KATP channels activity in HBMVEC and GBM cells were determined.

intracerebral RG2 tumors = test: In vivo BTB permeability (Ki by quantitative autoradiography) in RG2 tumor-bearing rats; set-up: species or system rat; details: data not shown
[3] = system: intracranial human glial tumors; test: Survival study, nude mice with intracranial human glial tumors; type: in vivo, mouse; details: i.v., three consecutive doses for three days
Method: GBM-xenograft rat and mouse models were developed by intracranially implanting primary GBM cells isolated from patient brain tumor tissue. […] To investigate whether MS administration by intracarotid (i.c.) and intravenous (i.v.) routes, increases BTB permeability to different tracers, and enhances delivery to brain tumor, permeability studies were performed.
Nude mice were intracranially implanted with cells. The tumor was allowed to grow for 7 days before treatment was initiated.

In the case of `CC(=O)NC(C(=O)O)C(C)(C)SN=O` (racemic) [SNAP, S-nitroso-N-acetyl-D,L-penicillamine], the “Half-life (t1/2) of NO donor” value [1] is given as 1980 to 2460 min.

For `[C-]#[O+]` [CO, Carbon monoxide], the “Increase in soluble guanylyl cyclase activity” value (soluble guanylyl cyclase; in the presence of YC-1) is given as over 100 fold.

For `CCN(CC)N(O)N=O.CCNCC` [DEA/NO, N-ethylethanamine: 1,1-diethyl-2-hydroxy-2-nitrosohydrazine (1:1)], the “Half-life (t1/2) of NO donor” value [1] is given as 2 to 4 min.

For `NCCN(CCN)N(O)N=O` [DETA/NO, 2,2′-hydroxynitrosohydrazino]bis-ethanamine], the “Half-life (t1/2) of NO donor” value [1] is given as “about 20 hours”.

In the case of `[N]=O` [NO, Nitric oxide], the “Increase of vMax of sGC” value (soluble guanylyl cyclase) is listed as 100-200 fold.

For `O=c1[nH]c2cc(C(F)(F)F)ccc2n1-c1cc(C(F)(F)F)ccc1O` [NS-1619, 1,3-dihydro-1-[2-hydroxy-5-(trifluoromethyl)phenyl]-5-(trifluoromethyl)-2H-benzimidazol-2-one], the “Effect on CBF in tumor and normal brain” value ([2]; i.c. infusion of low doses) is listed as “did not alter CBF”.

For `CCCN(CCCN)N(O)N=O` [PAPA/NO, 3-(2-hydroxy-2-nitroso-1-propylhydrazino)-1-propanamine], the “Half-life (t1/2) of NO donor” value [1] is given as “about 15 minutes”.

For `NCCCNCCCCN(CCCN)N(O)N=O` [SPER/NO, N-(4-[1-(3-aminopropyl)-2-hydroxy-2-nitroso-hydrazino]-butyl)-1,3-propanediamine], the “Half-life (t1/2) of NO donor” value [1] is given as 34 to 40 min.

In the case of `N.N.O=C([O-])C1(C(=O)[O-])CCC1.[Pt+2]` [carboplatin], the Mean survival (intracranial RG2 tumors; RG2 tumor rats, i.c. once a day for three days, carboplatin 5 mg/kg, MS 30 μg/kg/min for 15 min) is reported as 55.46 ± 5.71 days and the Mean tumor size (intracranial RG2 tumors; coronal brain sections) is reported as 5.30±1.9 mm^2 and 5.30±1.2 mm^2.

For `COc1ccc(Cl)cc1C(=O)NCCc1ccc(S(=O)(=O)NC(=O)NC2CCCCC2)cc1` [glibenclamide], the “Membrane potential dye fluorescence intensity” value (KATP channels) was “reversed” and the “BBB or BTB permeability, glibenclamide infused alone or prior to MS” value (intracerebral RG2 tumors) was “did not affect BBB or BTB permeability”.

`Cn1nnc2c(C(N)=O)ncn2c1=O` [temodor] gave a Mean survival [3] of 25.5 ± 6.3 days.

For RPPGFSPFR [BK], the “Effect on CBF in tumor and normal brain” value ([2]; rat, in vivo) is listed as “did not alter CBF”.

From patent publication US20050089473A1, “Potassium channel mediated delivery of agents through the blood-brain barrier” (Cedars-Sinai Medical Center, priority 2003, published 2005)
